# In patent publication US5399487A, “6-peptidylamino-1-naphthalenesulfonamides useful as fluorogenic proteolytic enzyme substrates” (Haematologic Technologies, Inc., priority 1993, dated 1995):
# Key:
# Format in all cases: biochemical
# [1] = target: activated protein C (APC) (Homo sapiens, UniProt P04070); assay: Fluorogenic enzyme assay (Example 5); set-up: key to Kinetic constants, APC (symbol b): slow substrate hydrolysis, no kinetic constants calculated
# Procedure: (§1) Enzyme assays (except factor VIIa assays, see below) were conducted in 20 mM Tris, 150 mM NaCl, pH 7.4 (TBS) at room temperature (22° C.). The final volume for all reaction mixtures was 2.0 ml. Fluorogenic substrates were dissolved in DMSO to a stock concentration of 10 mM. The 10 mM stock solution was diluted in TBS to the final working concentration prior to all assays. Enzyme was added to mixtures containing buffer components and substrate and the initial rate of substrate hydrolysis was measured as the change in fluorescent intensity over time, corresponding to the generation of the particular 6-amino-1-naphthalenesulfonamide fluorophore from the provided substrate. Quantitation of substrate hydrolysis was accomplished by establishing a standard curve from the appropriate fluorescent moiety. Fluorescence was monitored (continuously or discontinuously) using a Perkin Elmer fluorescence spectrophotometer, model MPF-44A, equipped with a standard chart recorder. The fluorophore was detected using monochrometers set at an excitation wavelength of 352 nm and an emission wavelength of 470 nm. Light scattering artifacts were minimized using a 399 nm cut off filter in the emission light beam.
# (§2) The kinetic constants of substrate hydrolysis were determined using the non-linear least squares regression analysis program ENZFITTER (Cambridge, UK). This program was used to iteratively fit initial rates of substrate hydrolysis to the Michaelis-Menten equation and the kinetic constants of substrate hydrolysis (Km) and (kcat) were calculated.
# factor VIIa = target: T1, factor VIIa (Homo sapiens, UniProt P08709); assay: Fluorogenic enzyme assay, relative hydrolysis rates (Table 8); settings: at 100 hours; 10 nM enzyme, substrate 1 μM
# T1 construct: directly measure the enzymatic activity of factor VIIa in the presence and absence of tissue factor and phospholipid
# T1 sequence (P08709 213-466 limits assumed): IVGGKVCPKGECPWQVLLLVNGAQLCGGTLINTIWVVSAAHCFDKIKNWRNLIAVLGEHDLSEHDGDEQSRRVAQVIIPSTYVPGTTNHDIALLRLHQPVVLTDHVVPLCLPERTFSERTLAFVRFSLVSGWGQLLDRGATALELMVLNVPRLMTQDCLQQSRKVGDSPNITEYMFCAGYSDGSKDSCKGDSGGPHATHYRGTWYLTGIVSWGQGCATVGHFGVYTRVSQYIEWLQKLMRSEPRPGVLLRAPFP
# T1 sequence (P08709 61-212 limits assumed): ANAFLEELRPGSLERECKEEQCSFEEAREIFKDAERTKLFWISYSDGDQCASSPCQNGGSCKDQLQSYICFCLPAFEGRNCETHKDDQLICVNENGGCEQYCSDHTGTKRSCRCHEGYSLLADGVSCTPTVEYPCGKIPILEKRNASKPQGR
# Procedure: as §1
# Factor VII assays were conducted in 20 mM HEPES, 150 mM NaCl, 5 mM CaCl2, pH 7.4 (HBS) at 37° C. The final volume for all reactions was 1.6 ml. 6-(Mes-D-Leu-Gly-Arg)amino-1-(N,N-diethyl)naphthalenesulfonamide was dissolved in DMSO to a stock concentration of 10 mM. This 10 mM stock solution of was diluted in HBS to final working concentration prior to all assays. For reactions involving tissue factor (TF) and phospholipid vesicles, recombinant human tissue factor was solubilized in either 0.04% n-dodecyl octaethylene glycol (C12 E8) or 0.8% octyl glucoside. The TF/n-dodecyl octaethylene glycol was then relipidated into PCPS or PC vesicles by a 30 minute incubation step as described by Lawson & Mann, J. Biol. Chem. 266: 11317-11327 (1991). TF/octyl glucoside was relipidated into PC or PCPS vesicles by a thirty minute incubation step followed by exhaustive dialysis. The final concentration of tissue factor used in the studies described here ranged from 2 to 50 nM depending on the nature of the experiment.
# Fifteen minutes prior to the start of all reactions factor VIIa was added to the reaction system. This incubation period was followed by the addition of substrate (1 μM to 400 μM) to the mixture to start the reaction. In experiments designed to determine kinetic constants of substrate hydrolysis, 50 nM rVIIa was used when no tissue factor was present in the reaction system, while 0.5 nM rVIIa was used when tissue factor was present in the reaction system. The rate of substrate hydrolysis was measured by change in fluorescence over time, which corresponded with the generation of the 6-amino-1-(N,N-diethyl)naphthalenesulfonamide from the provided substrate. The kinetic constants of 6-(Mes-D-Leu-Gly-Arg)amino-1-(N,N-diethyl)naphthalenesulfonamide hydrolysis as a function of factor VIIa/tissue factor complex assembly are shown in Table 10.
# urokinase (u-PA) = urokinase (u-PA) (Homo sapiens, UniProt P00749); assay: Fluorogenic enzyme assay (Example 5); settings: substrate 1 μM; for hydrolysis, u-PA (symbol d): at 100 hours
# Procedure: as §1, §2
# plasmin (Plm) = plasmin (Plm) (Homo sapiens, UniProt P00747); assay: Fluorogenic enzyme assay (Example 5); settings: substrate 1 μM
# Procedure: as §1, §2
# [2] = target: tissue plasminogen activator (t-PA) (Homo sapiens, UniProt P00750); assay: Fluorogenic enzyme assay (Example 5); settings: substrate 1 μM; for hydrolysis, t-PA (symbol d): at 100 hours
# Procedure: as §1, §2
# thrombin (IIa) = target: T2, thrombin (IIa) (Homo sapiens, UniProt P00734); assay: Fluorogenic enzyme assay (Example 5); set-up: key to Kinetic constants, IIa (symbol b): slow substrate hydrolysis, no kinetic constants calculated; settings: for TIME TO 10% HYDROLYSIS (HOURS), IIa: 10 nM enzyme
# T2 construct: 0.5 nM human thrombin (IIa)
# Procedure: as §1, §2
# factor Xa = factor Xa (Homo sapiens, UniProt P00742); assay: Fluorogenic enzyme assay (Example 5); set-up: key to Kinetic constants, Xa (symbol b): slow substrate hydrolysis, no kinetic constants calculated; settings: for hydrolysis, Xa (symbol d): at 100 hours
# Procedure: as §1, §2
# factor IXa = factor IXa (Homo sapiens, UniProt P00740); assay: Fluorogenic enzyme assay (Example 5); set-up: key to Kinetic constants, IXa (symbol b): slow substrate hydrolysis, no kinetic constants calculated; settings: for hydrolysis, IXa (symbol d): at 100 hours, 100 nM enzyme, substrate 1 μM; for Kinetic constants, IXa (symbol b): Table 9
# Procedure: as §1, §2
# tissue plasminogen activator (t-PA), sequence (P00750 36-562, species assumed): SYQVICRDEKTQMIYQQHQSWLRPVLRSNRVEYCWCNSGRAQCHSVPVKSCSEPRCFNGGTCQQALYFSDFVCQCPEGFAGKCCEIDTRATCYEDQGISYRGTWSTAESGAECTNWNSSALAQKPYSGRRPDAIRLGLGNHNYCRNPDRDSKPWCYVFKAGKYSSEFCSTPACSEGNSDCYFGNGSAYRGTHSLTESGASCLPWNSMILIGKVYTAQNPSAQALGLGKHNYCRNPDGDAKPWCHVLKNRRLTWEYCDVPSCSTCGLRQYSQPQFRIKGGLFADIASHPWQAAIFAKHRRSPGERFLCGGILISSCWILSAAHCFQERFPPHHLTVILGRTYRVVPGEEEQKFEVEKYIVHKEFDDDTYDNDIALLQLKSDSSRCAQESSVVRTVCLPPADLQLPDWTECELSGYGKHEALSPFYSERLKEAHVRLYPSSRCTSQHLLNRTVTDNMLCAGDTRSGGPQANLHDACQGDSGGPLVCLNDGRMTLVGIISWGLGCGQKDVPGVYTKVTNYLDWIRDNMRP
# activated protein C (APC), sequence (P04070 212-461 limits assumed): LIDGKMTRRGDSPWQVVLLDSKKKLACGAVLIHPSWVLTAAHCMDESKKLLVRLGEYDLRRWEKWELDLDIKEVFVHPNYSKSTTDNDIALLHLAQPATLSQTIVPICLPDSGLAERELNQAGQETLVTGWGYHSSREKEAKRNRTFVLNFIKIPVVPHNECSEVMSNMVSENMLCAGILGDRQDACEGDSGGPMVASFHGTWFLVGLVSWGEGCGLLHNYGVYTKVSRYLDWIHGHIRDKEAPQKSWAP
# activated protein C (APC), sequence (P04070 43-197 limits assumed): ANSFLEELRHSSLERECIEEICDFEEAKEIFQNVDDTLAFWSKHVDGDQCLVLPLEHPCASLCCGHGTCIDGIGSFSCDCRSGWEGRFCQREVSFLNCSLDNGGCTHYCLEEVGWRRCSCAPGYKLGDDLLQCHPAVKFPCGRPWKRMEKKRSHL
# factor Xa, sequence (P00742 235-488 limits assumed): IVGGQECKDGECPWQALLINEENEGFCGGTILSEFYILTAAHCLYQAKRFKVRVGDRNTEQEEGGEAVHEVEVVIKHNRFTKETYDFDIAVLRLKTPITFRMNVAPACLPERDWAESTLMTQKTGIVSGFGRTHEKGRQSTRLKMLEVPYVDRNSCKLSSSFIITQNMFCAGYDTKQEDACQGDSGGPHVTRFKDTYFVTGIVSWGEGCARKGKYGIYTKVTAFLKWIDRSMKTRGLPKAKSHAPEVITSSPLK
# factor Xa, sequence (P00742 41-179 limits assumed): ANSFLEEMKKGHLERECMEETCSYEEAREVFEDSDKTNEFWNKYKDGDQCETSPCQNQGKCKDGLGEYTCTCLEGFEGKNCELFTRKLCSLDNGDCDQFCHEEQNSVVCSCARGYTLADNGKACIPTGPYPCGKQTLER
# plasmin (Plm), sequence (P00747 581-810 limits assumed, species assumed): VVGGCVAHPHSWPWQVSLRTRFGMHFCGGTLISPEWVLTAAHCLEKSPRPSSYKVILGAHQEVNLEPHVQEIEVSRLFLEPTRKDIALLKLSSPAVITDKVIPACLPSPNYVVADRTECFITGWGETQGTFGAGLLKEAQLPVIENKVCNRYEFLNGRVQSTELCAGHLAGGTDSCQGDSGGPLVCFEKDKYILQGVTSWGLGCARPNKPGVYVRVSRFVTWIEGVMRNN
# plasmin (Plm), sequence (P00747 97-580 limits assumed, species assumed): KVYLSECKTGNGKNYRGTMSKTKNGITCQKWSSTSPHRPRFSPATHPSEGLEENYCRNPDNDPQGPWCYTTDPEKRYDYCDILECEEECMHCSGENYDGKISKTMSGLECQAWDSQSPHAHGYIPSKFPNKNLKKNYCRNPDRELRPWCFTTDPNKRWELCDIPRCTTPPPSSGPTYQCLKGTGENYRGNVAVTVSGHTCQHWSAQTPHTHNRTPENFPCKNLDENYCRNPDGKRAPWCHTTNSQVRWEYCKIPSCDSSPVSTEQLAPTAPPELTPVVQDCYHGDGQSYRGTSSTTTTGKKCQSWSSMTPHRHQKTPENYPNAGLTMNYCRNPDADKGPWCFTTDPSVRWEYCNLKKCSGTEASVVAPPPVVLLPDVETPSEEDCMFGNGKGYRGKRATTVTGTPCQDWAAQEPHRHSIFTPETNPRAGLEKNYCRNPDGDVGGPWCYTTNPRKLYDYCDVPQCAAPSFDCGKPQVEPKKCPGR
# factor IXa, sequence (P00740 227-461 limits assumed): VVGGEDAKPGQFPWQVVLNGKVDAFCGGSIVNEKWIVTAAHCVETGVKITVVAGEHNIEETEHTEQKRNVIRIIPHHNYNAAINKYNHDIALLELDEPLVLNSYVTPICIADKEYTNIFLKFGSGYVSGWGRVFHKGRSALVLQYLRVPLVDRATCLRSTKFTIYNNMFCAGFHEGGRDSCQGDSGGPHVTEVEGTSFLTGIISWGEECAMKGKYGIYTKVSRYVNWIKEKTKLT
# factor IXa, sequence (P00740 47-191 limits assumed): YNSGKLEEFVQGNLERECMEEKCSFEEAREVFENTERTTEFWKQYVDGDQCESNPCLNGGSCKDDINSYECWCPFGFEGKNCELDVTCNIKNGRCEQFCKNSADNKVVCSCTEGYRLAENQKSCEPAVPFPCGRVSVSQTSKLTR
structure (smiles),measurement,setting,value
CN(C)S(=O)(=O)c1cccc2cc(NC(=O)[C@H](CCCNC(=N)N)NC(=O)[C@@H](N)CCCCNC(=O)OCc3ccccc3)ccc12.Cl.Cl [N^ω -AZ)KJR-ANSN(CH3)2],"TIME TO 10% HYDROLYSIS (HOURS), APC","[1]; 100 nM enzyme (footnote b), substrate 1 μM",5.5 h
same,"hydrolysis, VIIa (symbol d)",factor VIIa,d (hydrolysis at 100 hours was less than 10%.)
same,"hydrolysis, u-PA (symbol d)",urokinase (u-PA); 100 nM enzyme,d (hydrolysis at 100 hours was less than 10%.)
same,"TIME TO 10% HYDROLYSIS (HOURS), Plm",plasmin (Plm); 100 nM enzyme (footnote b),1.5 h
same,"hydrolysis, t-PA (symbol d)",[2]; 100 nM enzyme,d (hydrolysis at 100 hours was less than 10%.)
same,"TIME TO 10% HYDROLYSIS (HOURS), IIa",thrombin (IIa); substrate 1 μM,26 h
same,"hydrolysis, Xa (symbol d)","factor Xa; 10 nM enzyme, substrate 1 μM",d (hydrolysis at 100 hours was less than 10%.)
same,"hydrolysis, IXa (symbol d)",factor IXa,d (hydrolysis at 100 hours was less than 10%.)
CCCNS(=O)(=O)c1cccc2cc(NC(=O)[C@H](CCCNC(=N)N)NC(=O)[C@H](Cc3ccccc3)NC(=O)[C@@H]3CCCN3C(=O)OC(C)(C)C)ccc12 [BocPFR-ANSNHC3 H7],"TIME TO 10% HYDROLYSIS (HOURS), APC","[1]; 10 nM enzyme, substrate 1 μM",3 h
same,"Kinetic constants, APC (symbol b)",[1]; Table 9,b
same,"hydrolysis, VIIa (symbol d)",factor VIIa,d (hydrolysis at 100 hours was less than 10%.)
same,"TIME TO 10% HYDROLYSIS (HOURS), u-PA",urokinase (u-PA); 100 nM enzyme,5 h
same,"TIME TO 10% HYDROLYSIS (HOURS), Plm",plasmin (Plm); 10 nM enzyme,22 h
same,"TIME TO 10% HYDROLYSIS (HOURS), t-PA",[2]; 100 nM enzyme,4 h
same,"TIME TO 10% HYDROLYSIS (HOURS), IIa",thrombin (IIa); substrate 1 μM,4 h
same,Km,thrombin (IIa); Table 9,44.4 µM
same,"kcat /Km, IIa",thrombin (IIa); Table 9,900 M⁻¹ s⁻¹
same,"kcat, IIa",thrombin (IIa); Table 9,0.04 s⁻¹
same,"TIME TO 10% HYDROLYSIS (HOURS), Xa","factor Xa; 10 nM enzyme, substrate 1 μM",9 h
same,Km,factor Xa; Table 9,230 µM
same,"kcat /Km, Xa",factor Xa; Table 9,260 M⁻¹ s⁻¹
same,"kcat, Xa",factor Xa; Table 9,0.06 s⁻¹
same,"Kinetic constants, IXa (symbol b)",factor IXa,b
same,"hydrolysis, IXa (symbol d)",factor IXa,d (hydrolysis at 100 hours was less than 10%.)
N=C(N)NCCC[C@H](NC(=O)CNC(=O)CNC(=O)OCc1ccccc1)C(=O)N[C@@H](CCCNC(=N)N)C(=O)Nc1ccc2c(S(=O)(=O)NC3CCCCC3)cccc2c1 [ZGGRR-ANSNH(cyclo-C6 H11)],"TIME TO 10% HYDROLYSIS (HOURS), APC","[1]; 10 nM enzyme, substrate 1 μM",0.6 h
same,Km,[1]; Table 9,320 µM
same,"kcat /Km, APC",[1]; Table 9,19300 M⁻¹ s⁻¹
same,"kcat, APC",[1]; Table 9,6.2 s⁻¹
same,"hydrolysis, VIIa (symbol d)",factor VIIa,d (hydrolysis at 100 hours was less than 10%.)
same,"hydrolysis, u-PA (symbol d)",urokinase (u-PA); 100 nM enzyme,d (hydrolysis at 100 hours was less than 10%.)
same,"TIME TO 10% HYDROLYSIS (HOURS), Plm",plasmin (Plm); 10 nM enzyme,47 h
same,"hydrolysis, t-PA (symbol d)",[2]; 100 nM enzyme,d (hydrolysis at 100 hours was less than 10%.)
same,"TIME TO 10% HYDROLYSIS (HOURS), IIa",thrombin (IIa); substrate 1 μM,93 h
same,"Kinetic constants, IIa (symbol b)",thrombin (IIa); Table 9,b
same,"Kinetic constants, Xa (symbol b)",factor Xa; Table 9,b
same,"hydrolysis, Xa (symbol d)","factor Xa; 10 nM enzyme, substrate 1 μM",d (hydrolysis at 100 hours was less than 10%.)
same,"Kinetic constants, IXa (symbol b)",factor IXa,b
same,"hydrolysis, IXa (symbol d)",factor IXa,d (hydrolysis at 100 hours was less than 10%.)
Br.N=C(N)NCCC[C@H](NC(=O)OCc1ccccc1)C(=O)Nc1ccc2c(S(=O)(=O)NCc3ccccc3)cccc2c1 [(N^α -Z)ArgANSNR1 R2; H; benzyl],Km,[1]; Table 7,218 µM
same,"kcat /Km, APC",[1]; Table 7,1050 M⁻¹ s⁻¹
same,"kcat, APC",[1]; Table 7,0.23 s⁻¹
same,"Time (min) for 10% hydrolysis, APC","[1]; enzyme 100 nM, substrate 1 μM",12 min
same,"Time (min) for 10% hydrolysis, u-PA",urokinase (u-PA); enzyme 100 nM,19 min
same,"Time (min) for 10% hydrolysis, Plm",plasmin (Plm); enzyme 100 nM,330 min
same,"Time (min) for 10% hydrolysis, t-PA",[2]; enzyme 100 nM,510 min
same,Km,thrombin (IIa); Table 7,41 µM
same,"kcat /Km, IIa",thrombin (IIa); Table 7,1680 M⁻¹ s⁻¹
same,"kcat, IIa",thrombin (IIa); Table 7,0.07 s⁻¹
same,"Time (min) for 10% hydrolysis, IIa","thrombin (IIa); enzyme 100 nM, substrate 1 μM",17 min
same,Km,factor Xa; Table 7,213 µM
same,"kcat /Km, Xa",factor Xa; Table 7,198 M⁻¹ s⁻¹
same,"kcat, Xa",factor Xa; Table 7,0.04 s⁻¹
same,"Time (min) for 10% hydrolysis, Xa","factor Xa; enzyme 100 nM, substrate 1 μM",46 min
